The record followed here is patent US8907126B2, “Tyrosine derivative and method for producing tyrosine derivative” (NARD Institute, Ltd., priority 2012, dated 2014).

The target of this assay is T1, human recombinant melatonin MT1 receptors (Homo sapiens, UniProt P48039).
T1 construct: expressed in transfected cells; host or cells: CHO-K1 cells (membranes)
The assay can be described thus: Inhibitory activity test against melatonin MT1 receptor ([35S]GTPγS binding, SPA). The following applies: membranes of CHO-K1 cells expressing MT1, 0.1 nM 2-iodomelatonin, 0.3 nM [35S]GTPγS, HEPES buffer pH 7.4; test concentration not given. It is filed as biochemical. Here is the method: An inhibitory activity of the tyrosine derivative of the present invention against a melatonin MT1 receptor was evaluated. Specifically, human recombinant melatonin MT1 receptors expressed in CHO-K1 cells were used in modified HEPES buffer pH 7.4. The tyrosine derivative obtained in the above Example 8 was preincubated with 0.025 mg/mL of membranes of the cell and 1 μM of guanosine diphosphate in modified HEPES buffer (pH 7.4) at 25° C. for 20 minutes, then SPA, i.e. Scintillation proximity assay, beads were added thereto. The mixture was preincubated at 30° C. for 60 minutes. The reaction was initiated by adding 0.3 nM of [^35S]GTPγS and incubating the mixture for 30 minutes, and the test compound-induced inhibition of 0.1 nM 2-iodomelatonin-induced increase of [^35S]GTPγS binding response was measured.
(Binding of GTPγS marks nucleotide exchange on a G protein.)

T1 sequence (P48039 whole entry): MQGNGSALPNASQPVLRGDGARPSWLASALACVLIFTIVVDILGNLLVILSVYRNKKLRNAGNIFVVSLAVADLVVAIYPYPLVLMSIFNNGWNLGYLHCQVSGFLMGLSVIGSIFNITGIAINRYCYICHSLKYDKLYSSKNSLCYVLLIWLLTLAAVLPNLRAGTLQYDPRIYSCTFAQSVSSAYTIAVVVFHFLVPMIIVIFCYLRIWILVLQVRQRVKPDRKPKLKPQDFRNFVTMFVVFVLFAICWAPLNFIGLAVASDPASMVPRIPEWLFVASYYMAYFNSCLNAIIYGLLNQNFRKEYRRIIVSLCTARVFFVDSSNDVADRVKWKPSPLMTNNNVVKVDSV

In the case of `CC(C)(C)OC(=O)NC(Cc1cc(OCCCl)ccc1I)C(=O)OC(C)(C)C` (stereo not shown) [Example 8], the “inhibition of 2-iodomelatonin-induced increase of [35S]GTPγS binding response” value came to 33%.
